# Values joined by “and” are separate entries in the source; they are usually repeats but may differ in a detail not shown here. Equal entries are not always repeated. Where two headings read alike, the source gives them in different places.
# Target: T1, canine TRPM8 (Canis lupus familiaris, UniProt Q1A7N1)
# T1 construct: expressed in transfected cells
# Assay: In vitro canine TRPM8 functional assay (Ca2+-sensitive dye, FLIPR/FDSS, icilin activation)
# Format: cell-based
# Conditions: HEK293 cells expressing canine TRPM8, icilin activation; for % I (0.5 μM): 0.5 μM compound; for IC50: eight-point dose-response; for % I (1 μM): 1 μM compound; for % I (5 μM): 5 μM compound; for inhibition at 1 µM: HEK293, read-out: % I (1 μM), 1 μM compound
# Procedure: The functional activity of compounds of Formula (I) was determined by measuring changes in intracellular calcium concentration using a Ca^2+-sensitive fluorescent dye. The changes in fluorescent signal were monitored by a fluorescence plate reader, either a FLIPR™ (Molecular Devices) or FDSS (Hamamatsu).
# HEK293 cells stably expressing canine TRPM8 were routinely grown as monolayers in Dulbecco's minimum essential medium supplemented with 10% FBS, 1 mM L-glutamine, 100 units/mL penicillin, 100 ug/mL streptomycin and 400 μg/mL G418. Cells were maintained in 5% CO2 at 37° C. At 24 hrs prior to assay, cells were seeded in clear-base poly-D-lysine coated 384-well plates (BD Biosciences, NJ, USA) at a density of 5,000 cells per well in culture medium and grown overnight in 5% CO2 at 37° C. On assay day, growth media was removed and cells were loaded with Calcium 3 Dye (Molecular Devices) for 35 min at 37° C., under 5% CO2 and then for 25 min at room temperature and atmosphere. Subsequently, cells were tested for agonist-induced increases in intracellular Ca^2+ levels using FLIPR™ or FDSS. Cells were challenged with a compound of Formula (I) (at varying concentrations) and intracellular Ca^2+ was measured for 5 min prior to the addition of icilin to all wells to achieve a final concentration which produces approximately an 80% maximal response.
# Basal FI was subtracted prior to normalizing data to percent of maximal response. Curves were generated using the average of quadruplicate wells for each data point, were analyzed using nonlinear regression of either sigmoidal dose response or sigmoidal dose response (variable slope). Finally, the EC50 and IC50 values were calculated with the best-fit dose curve determined by GraphPad Prism.
# [1] = HEK293, 0.5 μM compound, read-out: % I (0.5 μM)
# T1 sequence (Q1A7N1 1-1104): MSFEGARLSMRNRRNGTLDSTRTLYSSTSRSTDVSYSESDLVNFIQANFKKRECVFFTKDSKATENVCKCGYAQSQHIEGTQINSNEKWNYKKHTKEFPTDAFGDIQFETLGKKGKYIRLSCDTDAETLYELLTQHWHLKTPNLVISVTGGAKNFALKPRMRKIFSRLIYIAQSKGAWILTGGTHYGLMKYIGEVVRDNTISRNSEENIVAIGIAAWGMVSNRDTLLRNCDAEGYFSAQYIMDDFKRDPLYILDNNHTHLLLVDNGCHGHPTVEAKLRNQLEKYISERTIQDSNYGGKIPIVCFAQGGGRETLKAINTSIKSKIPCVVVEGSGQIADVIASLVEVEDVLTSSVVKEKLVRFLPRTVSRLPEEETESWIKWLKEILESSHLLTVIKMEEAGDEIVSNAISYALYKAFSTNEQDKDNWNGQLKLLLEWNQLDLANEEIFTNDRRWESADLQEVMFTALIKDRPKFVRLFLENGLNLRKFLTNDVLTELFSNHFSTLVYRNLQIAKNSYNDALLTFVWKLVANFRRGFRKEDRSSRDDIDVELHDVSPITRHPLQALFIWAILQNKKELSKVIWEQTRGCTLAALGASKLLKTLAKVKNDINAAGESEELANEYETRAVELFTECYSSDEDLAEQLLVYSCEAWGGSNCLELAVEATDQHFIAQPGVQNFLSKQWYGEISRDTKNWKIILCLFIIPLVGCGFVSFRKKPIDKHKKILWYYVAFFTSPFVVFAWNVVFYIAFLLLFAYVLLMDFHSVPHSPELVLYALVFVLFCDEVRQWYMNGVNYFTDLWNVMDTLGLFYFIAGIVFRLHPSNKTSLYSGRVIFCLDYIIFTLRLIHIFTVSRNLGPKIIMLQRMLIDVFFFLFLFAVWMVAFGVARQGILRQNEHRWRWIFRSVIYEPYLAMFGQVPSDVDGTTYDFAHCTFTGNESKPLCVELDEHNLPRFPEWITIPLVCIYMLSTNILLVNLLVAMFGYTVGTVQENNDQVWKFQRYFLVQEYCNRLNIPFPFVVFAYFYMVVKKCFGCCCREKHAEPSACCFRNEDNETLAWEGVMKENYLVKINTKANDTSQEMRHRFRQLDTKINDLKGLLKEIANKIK
Compound,% I (0.5 μM) [%],IC50 (read-out: IC50),% I (1 μM) [%],further results
CCOP(=O)(OCC)C(Cc1cccc(C(F)(F)F)c1F)c1sc2ccccc2c1Br (centres unmarked) [Cpd 142],101,0.054 µM,–,–
CC(C)OP(=O)(OC(C)C)C(Cc1ccc(C(F)(F)F)c(F)c1)c1sc2ccccc2c1Cl (centres unmarked) [Cpd 174],104,0.089 µM,–,–
CCOP(=O)(OCC)C(Cc1ccc(C(F)(F)F)c(F)c1)c1cc2ccccc2s1 (centres unmarked) [Cpd 58],–,0.27 µM,100,–
CCOP(=O)(OCC)C(Cc1ccc(C(F)(F)F)cc1)c1cc2ccccc2s1 (centres unmarked) [Cpd 68],–,0.34 µM,96,–
CCOP(=O)(OCC)C(Cc1cc(OC)cc(OC)c1)c1sc2ccccc2c1Br (centres unmarked) [Cpd 319],103,0.026 µM,–,–
CC(C)OP(=O)(OC(C)C)C(Cc1cccc(O)c1)c1sc2ccccc2c1Br (centres unmarked) [Cpd 325],97,0.01 µM,–,–
"CCCCOP(=O)(OCCCC)C(Cc1ccc(F)c(F)c1)c1sc2ccccc2c1Br (centres unmarked) [Cpd 209, [1-(3-Bromo-benzo[b]thiophen-2-yl)-2-(3,4-difluoro-phenyl)-ethyl]-phosphonic acid dibutyl ester]",–,0.071 µM,–,inhibition at 0.5 µM [1]: 104%
CCOP(=O)(Cc1cc2ccccc2s1)OCc1ccccc1 (centres unmarked) [Cpd 111],–,–,14,–
CCOP(=O)(OCC)C(Cc1ccccc1F)c1cc2ccccc2s1 (centres unmarked) [Cpd 80],–,0.43 µM,93,% I (5 μM): 100%
"CCOP(=O)(OCC)C(Cc1ccc(Cl)c(Cl)c1)c1sc2ccccc2c1Br (centres unmarked) [Cpd 24, [1-(3-Bromo-benzo[b]thiophen-2-yl)-2-(3,4-dichloro-phenyl)-ethyl]-phosphonic acid diethyl ester]",–,–,–,inhibition at 1 µM: 100%; IC50 (IC50 (μM)): 0.107 µM
CC(C)OP(=O)(OC(C)C)C(Cc1cc(O)c(Cl)cc1F)c1sc2ccccc2c1Br (racemic) [Cpd 232],99,0.063 µM,–,–
CCOP(=O)(OCC)C(Cc1cccc(OC(F)(F)F)c1)c1sc2ccccc2c1C (centres unmarked) [Cpd 57],–,0.26 µM,100,–
CC(C)OP(=O)(OC(C)C)C(Cc1ccc(SC(F)(F)F)cc1)c1sc2ccccc2c1Cl (racemic) [Cpd 304],102,0.028 µM,–,–
CC(C)OP(=O)(OC(C)C)C(Cc1ccc(F)c(Cl)c1)c1sc2ccccc2c1Cl (centres unmarked) [Cpd 253],103,0.034 µM,–,–
CCOP(=O)(OCC)C(Cc1ccccc1Cl)c1cc2ccccc2s1 (centres unmarked) [Cpd 85],–,0.48 µM,90,% I (5 μM): 100%
CCOP(=O)(OCC)C(Cc1ccccc1OC(F)(F)F)c1sc2ccccc2c1C (centres unmarked) [Cpd 61],–,0.28 µM,100,–
CC(C)OP(=O)(OC(C)C)C(Cc1cc(C(F)(F)F)cc(C(F)(F)F)c1)c1sc2ccccc2c1Cl (racemic) [Cpd 171],95,0.221 µM,–,–
CCOP(=O)(OCC)C(Cc1ccc(C(F)(F)F)cc1F)c1sc2ccccc2c1Br (racemic) [Cpd 150],103,0.09 µM,–,–
CC(C)OP(=O)(OC(C)C)C(Cc1ccc(F)cc1)c1sc2cc(Br)ccc2c1Br (centres unmarked) [Cpd 200],–,–,81,–
CCOP(=O)(OCC)C(Cc1c(Cl)ccc(C)c1F)c1sc2ccccc2c1C (centres unmarked) [Cpd 60],–,0.28 µM,100,–
CCOP(=O)(OCC)C(Cc1cccc(C(=O)OC)c1)c1sc2ccccc2c1Br (centres unmarked) [Cpd 313],102,0.083 µM,–,–
"CCOP(=O)(Cc1cc2ccccc2s1)OCc1c(Cl)cccc1Cl (centres unmarked) [Cpd 94, Benzo[b]thiophen-2-ylmethyl-phosphonic acid 2,6-dichloro-benzyl ester ethyl ester]",–,–,–,% I (5 μM): 98%; inhibition at 1 µM: 79%; IC50 (IC50 (μM)): 0.6 µM
CCC(C)P(=O)(C(C)CC)C(Cc1ccc(F)c(F)c1)c1sc2ccccc2c1Br (centres unmarked) [Cpd 203],–,0.457 µM,96,–
"CCOP(=O)(CC(C)C)C(Cc1ccc(F)c(F)c1)c1sc2ccccc2c1C (centres unmarked) [Cpd 36, [2-(3,4-Difluoro-phenyl)-1-(3-methyl-benzo[b]thiophene-2-yl)-ethyl]-isobutyl-phosphonic acid ethyl ester]",–,0.126 µM,100,–

Compound,% I (0.5 μM) [%],IC50 (read-out: IC50),% I (1 μM) [%],further results
CCOP(=O)(OCC)C(Cc1cccc(Cl)c1Cl)c1sc2ccccc2c1C (centres unmarked) [Cpd 35],–,0.125 µM,100,–
CC(C)OP(=O)(OC(C)C)C(Cc1cccc(F)c1F)c1sc2ccccc2c1Br (centres unmarked) [Cpd 194],–,0.041 µM,103,–
CCOP(=O)(OCC)C(Cc1ccc2ccccc2c1)c1cc2ccccc2s1 (centres unmarked) [Cpd 83],–,0.45 µM,84,–
CCOP(=O)(OCC)C(Cc1cccc(Cl)c1F)c1sc2ccccc2c1Cl (centres unmarked) [Cpd 272],103,0.114 µM,–,–
CC(C)OP(=O)(OC(C)C)C(Cc1cccc(SC(F)(F)F)c1)c1sc2ccccc2c1Cl (centres unmarked) [Cpd 255],103,0.058 µM,–,–
"CCOP(=O)(Cc1cc2ccccc2s1)OCc1ccccc1F (centres unmarked) [Cpd 109, Benzo[b]thiophen-2-ylmethyl-phosphonic acid ethyl ester 2-fluoro-benzyl ester]",–,–,–,% I (5 μM): 98%; inhibition at 1 µM: 17%; IC50 (IC50 (μM)): 1.47 µM
"CCOP(=O)(OCC)C(Cc1ccc(F)c(F)c1)c1oc2ccccc2c1C (centres unmarked) [Cpd 9, [2-(3,4-Difluoro-phenyl)-1-(3-methyl-benzofuran-2-yl)-ethyl]-phosphonic acid diethyl ester]",–,–,–,inhibition at 1 µM: 100%; IC50 (IC50 (μM)): 0.041 µM
CC(C)OP(=O)(OC(C)C)C(Cc1cc(F)cc(Cl)c1)c1sc2ccccc2c1Cl (centres unmarked) [Cpd 186],104,0.051 µM,–,–
CCOP(=O)(OCC)C(Cc1ccc(F)cc1Cl)c1cc2ccccc2s1 (centres unmarked) [Cpd 98],–,0.71 µM,79,–
CC(C)OP(=O)(OC(C)C)C(Cc1ccc(F)c(F)c1)c1sc2ncccc2c1Br (racemic) [Cpd 207],99,0.051 µM,–,–
CC(C)OP(=O)(OC(C)C)C(Cc1ccccc1F)c1sc2ccccc2c1Br (centres unmarked) [Cpd 196],–,0.048 µM,100,–
CCOP(=O)(OCC)C(Cc1cc(C(F)(F)F)cc(C(F)(F)F)c1)c1sc2ccccc2c1Br (centres unmarked) [Cpd 261],102,0.073 µM and 0.077 µM,–,–
"CCOP(=O)(OCC)C(Cc1cccc(-c2ccncc2)c1)c1sc2ccccc2c1C (centres unmarked) [Cpd 72, [1-(3-Methyl-benzo[b]thiophen-2-yl)-2-(3-pyridin-4-yl-phenyl)-ethyl]-phosphonic acid diethyl ester]",–,–,–,inhibition at 1 µM: 99%; IC50 (IC50 (μM)): 0.36 µM
CCOP(=O)(OCC)C(Cc1ccccc1C(F)(F)F)c1sc2ccccc2c1Cl (racemic) [Cpd 279],97,0.291 µM,–,–
CC(C)OP(=O)(OC(C)C)C(Cc1cccc(Br)c1)c1sc2ccccc2c1Cl (centres unmarked) [Cpd 182],104,0.075 µM,–,–
CCOP(=O)(OCC)C(Cc1cc(F)cc(Cl)c1)c1sc2ccccc2c1Cl (centres unmarked) [Cpd 276],103,0.114 µM,–,–
"CC(C)OP(=O)(OC(C)C)C(Cc1ccc(F)c(F)c1)c1sc2cccc(F)c2c1Br (centres unmarked) [Cpd 221, [1-(3-Bromo-4-fluoro-benzo[b]thiophen-2-yl)-2-(3,4-difluoro-phenyl)-ethyl]-phosphonic acid diisopropyl ester]",–,0.032 µM,–,inhibition at 0.5 µM [1]: 102%
"CCOP(=O)(OCC)C(Cc1ccc(F)c(O)c1)c1sc2ccccc2c1Br (centres unmarked) [Cpd 225, [1-(3-Bromo-benzo[b]thiophen-2-yl)-2-(4-fluoro-3-hydroxy-phenyl)-ethyl]-phosphonic acid diethyl ester]",–,–,–,"inhibition at 0.5 µM (HEK293, read-out: % I (0.5 μM), 0.5 μM compound): 103%; IC50 (IC50 (μM)): 0.027 µM"
CCOP(=O)(OCC)C(Cc1ccc(O)c(C(F)(F)F)c1)c1sc2ccccc2c1Br (racemic) [Cpd 233],70,–,–,–
CC(C)OP(=O)(OC(C)C)C(Cc1ccc(C(F)(F)F)cc1F)c1sc2ccccc2c1Cl (centres unmarked) [Cpd 191],104,0.125 µM,–,–
"CCOP(=O)(OCC)C(Cc1ccc(F)c(F)c1)c1sc2ccc(F)cc2c1C (centres unmarked) [Cpd 45, [2-(3,4-Difluoro-phenyl)-1-(5-fluoro-3-methyl-benzo[b]thiophene-2-yl)-ethyl]-phosphonic acid diethyl ester]",–,–,–,inhibition at 1 µM: 100%; IC50 (IC50 (μM)): 0.164 µM
CCOP(=O)(OCC)C(Cc1cc(Cl)ccc1F)c1sc2ccccc2c1Br (racemic) [Cpd 307],103,0.026 µM,–,–
"CCOP(=O)(OCC)C(Cc1ccc(F)c(F)c1)c1sc2cc(F)ccc2c1C (centres unmarked) [Cpd 16, [2-(3,4-Difluoro-phenyl)-1-(6-fluoro-3-methyl-benzo[b]-thiophene-2-yl)-ethyl]-phosphonic acid diethyl ester]",–,–,–,inhibition at 1 µM: 100%; IC50 (IC50 (μM)): 0.057 µM and 0.064 µM

# — patent publication US20080287398A1, “COLD MENTHOL RECEPTOR-1 ANTAGONISTS” (priority 2007, published 2008)
